Data set [1] relates to mesenchymal Stem Cells (MSCs) isolated from human bone marrow. The experiment in a line: Toxicity in non-tumour cells, MSC proliferation by MTS assay. The data set is classed as cell-based. The settings on record: 72 h; EB54 at 10 μM; EB148 up to the highest concentration tested. The method, then: […]. At the end of treatments, cell proliferation was measured by MTS assay.

The next data set concerns U87MG cells. The experiment in a line: U87MG cell proliferation, MTS assay. The class given is cell-based, human. The method, then: The effects of compound treatment on U87MG cell viability and proliferation were evaluated by Trypan blue exclusion assays and MTS assay, respectively. […] For quantization of cell viability, blue and bright cells were counted, and viability was calculated as the number of living (bright) and dead (blue) cells in each well.
The absorbance of formazan at 490 nm was measured in a colorimetric assay with an automated plate reader (Victor Wallac 2, Perkin Elmer). For wash-out experiments, U87MG cells were treated with EB148 or EB54 (100 nM-10 μM) for 72 h. Following incubation, medium-containing drugs was replaced by fresh medium, and cells were allowed to growth for the indicated days. At the end of treatments, cell proliferation was measured by MTS assay. The results were calculated by subtracting the mean background from the values obtained from each evaluation and were expressed as the percentage of the control (untreated cells). Sigmoid dose-response curve was generated, from which the IC50 values were derived.

The subject of data set [2] is p53 target genes (p53, p21 and MDM2). The experiment in a line: Relative mRNA quantification of p53 target genes by real-time RT-PCR. The class given is cell-based, human. The method, then: In brief, total RNA was extracted from control cells as well as from cells treated with EB148 or EB54 (1 μM) for different times (8 h, 16 h or 24 h), using RneasyH Mini Kit (Qiagen, Hilden, Germany), according to manufacturer's instructions. cDNA synthesis was performed with 500 ng of RNA using i-Script cDNA synthesis kit (BioRad, Hercules, USA). RT-PCR reactions consisted of 25 μl FluocycleH II SYBRH (Euroclone, Milano, Italy), 1.5 μl of both 10 μM forward and reverse primers (listed in [56]), 3 μl cDNA, and 19 μL of H2O. […] PCR specificity was verified by both the melting curve analysis and gel electrophoresis.

Data set [3] in a line: Stability test in aqueous solution by HPLC. The data set is classed as physicochemical. The note with it: 1 μM in PBS with 1% DMSO, within 72 h. The method, then: To test the stability of EB148 in aqueous solution, the compound was dissolved in DMSO and diluted with PBS to the final 1 μM concentration (the amount of DMSO in the final solution was 1%). The solution was maintained in a closed vial and analysed by HPLC at specific times (4, 8, 24, 48 and 72 h) using the following conditions: column Shim-pack VP-ODS 4.6 μm (250 mm × 4.6 mm), isocratic elution with water, flow rate of 1 ml/min, room temperature. The percentage of decomposition was calculated on the base of peak area of the product.

The test system of another data set is ERK/MDM2 complex. The experiment in a line: Levels of ERK/MDM2 complex in U87MG cells (ELISA). The data set is classed as cell-based, human. The protocol:
U87MG cells were treated with DMSO (control), EB148 or EB54 for different times. When indicated, after 8 h of incubation, cells were washed twice with fresh saline and cultured in drug-free medium for an additional 24 h. At the end of the treatment period, the cells were collected, and suspended in lysis buffer containing 1% of the Protease inhibitor Cocktail.

In data set [4] the test system is mitochondria isolated from U87MG cells. The experiment in a line: Mitochondrial membrane potential (Δψm) dissipation, JC-1 protocol. The class given is biochemical, human. The settings on record: 1 μM, 20 min. The protocol: The Δψm dissipation was assessed using the fluorescent dye 5,59,6,69-tetrachloro1,19,3,39-tetraethylbenzimidazolylcarbocyanine iodide (JC-1). Mitochondria were isolated from U87MG cells using the Mitochondria Isolation Kit (Sigma Aldrich, Milan, Italy) following manufacturer's instructions.
Isolated mitochondria were treated for 20 min with EB54 or EB148 (1 μM). In wash-out experiments, mitochondria were then centrifuged at 11.000 × g for 5 min, washed with fresh saline and suspended in JC-1 buffer not containing the drugs. At the end of treatments, 5 μg of control and treated mitochondria were added to the JC-1 dye. The fluorescence (relative fluorescence units, RFU) of the sample was read in a spectrofluorimeter using a time-drive method (one acquisition each 10 sec, for 10 min), where the excitation wavelength was set to 490 nm and emission wavelength at 590 nm. […] Consequently, mitochondrial depolarization is indicated by a decrease in the orange-red fluorescence intensity.

On to `CCOC(=O)[C@@H](Cc1ccccc1)NC(=O)[C@H](CC(C)C)NC(=O)C(=O)c1c(-c2ccccc2)[nH]c2ccc(N=C=S)cc12` [EB148], for which, in data set [1], the MSC viability/proliferation result is recorded as “did not affect MSC proliferation”. Further, the IC50 in the data set on U87MG cells (Homo sapiens, U-87 MG, 72 h, read-out: IC50 of cell proliferation) was determined as 0.0916 ± 0.0089 µM. Moreover, the “cell proliferation 72 h after cell wash-out” value with U87MG cells (U87MG, 72 h treatment, then drug-free medium 72 h) is “inhibition of cell proliferation was maintained”. Further, the “induction of MDM2 mRNA” value in data set [2] (1 μM, 8 h) was 6.9 fold; in data set [2] (1 μM, 16 h), 8.8 fold; in data set [2] (1 μM, 24 h), 2.2 fold. The “mRNA expression of p53 target genes” value in data set [2] (1 μM, up to 24 h of cell treatment) is given as “sustained increase”. Also, the “levels of p53 target gene transcripts after wash-out” value in data set [2] (treated for 2 h (text; legend: 16 h), washed out for 16 h in drug-free medium) is “returned to control values”. In addition, the “average peak area (stability in aqueous solution)” value in data set [3] is recorded as 98.83 ± 0.47%. Besides, the “ERK/MDM2 association after cell wash-out” value in the data set on ERK/MDM2 complex (1 μM for 8 h, then wash-out for 24 h) is recorded as “remained significant”. Further, in the data set with ERK/MDM2 complex (1 μM, 8 and 24 h), the ERK/MDM2 complex formation entry was “significant and marked induction”. For the same molecule, the “JC-1 accumulation (Δψm) compared to control untreated mitochondria” value in data set [4] (isolated mitochondria) is listed as “significant reduction”. In addition, in data set [4] (then centrifuged and washed to remove the ligands), the “Δψm after mitochondria wash-out” value is on record as “determined Δψm collapse”.

These data come from PMC4884960, “Long lasting MDM2/Translocator protein modulator: a new strategy for irreversible apoptosis of human glioblastoma cells” (Oncotarget, 2016).
